Tests used:
HiBiT-tagged MYB protein = test: HiBiT protein abundance assay, MYB (K562 HiBiT knock-in cells); format: cell-based, human; conditions: 24 hours
Procedure, shortened: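 K562 cells with endogenous HiBiT knock-in tag, 10-point 3-fold dilutions (top 10 μM final, ≤0.25% DMSO), 24 h at 37 °C. Lytic Nano-Glo HiBiT luminescence, normalized to DMSO and unmodified K562 baselines; IC50 is concentration giving 50% protein abundance from four-parameter fit.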

Target C mRNA = test: Gene panel canonical junction qPCR assay, Target C CJ mRNA decrease; format: cell-based; conditions: Homo sapiens, canonical junction qPCR, read-out: Target C IC50 (decrease in CJ mRNA levels)
Procedure, shortened: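 IC50 values describe loss of canonical-junction transcript, fitted by 4-parameter logistic to percent response derived from fixed ΔCt windows. Read-out: RT-qPCR on lysates of compound-treated K562 or A673 cells, probes overlapping the exon junction, ΔΔCt versus housekeeping gene and DMSO control.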

| Structure (SMILES) | IC50 (HiBiT-tagged MYB protein) | IC50 (Target C mRNA) |
| --- | --- | --- |
| Cc1cn2cc(NC(=O)c3ccc(N4CCN[C@H](C5CC5)C4)c4nccnc34)cc(F)c2n1 [Compound 253, 8-[(3R)-3-cyclopropylpiperazin-1-yl]-N-{8-fluoro-2-methylimidazo[1,2-a]pyridin-6-yl}quinoxaline-5-carboxamide] | < 100 nM | > 10000 nM |
| Cc1cn2cc(NC(=O)c3ccc(N4CCN5CCOC[C@@H]5C4)c4nccnc34)cc(F)c2n1 [Compound 255, (S)—N-(8-fluoro-2-methylimidazo[1,2-a]pyridin-6-yl)-8-(hexahydropyrazino[2,1-c][1,4]oxazin-8(1H)-yl)quinoxaline-5-carboxamide] | 100 to 1000 nM | 100 to 1000 nM |
| Cc1cn2cc(NC(=O)c3ccc(N4CCN5CCOC[C@H]5C4)c4nccnc34)cc(F)c2n1 [Compound 256, (R)—N-(8-fluoro-2-methylimidazo[1,2-a]pyridin-6-yl)-8-(hexahydropyrazino[2,1-c][1,4]oxazin-8(1H)-yl)quinoxaline-5-carboxamide] | 1000 to 10000 nM | 1000 to 10000 nM |
| Cc1cn2cc(NC(=O)c3ccc(N4CC(C)NC(C)C4)c4nc(C)c(C)nc34)cc(F)c2n1 (stereo not drawn) [Compound 257] | 1000 to 10000 nM | 1000 to 10000 nM |
| Cc1cn2cc(NC(=O)c3ccc(N4CCC(NC5CC5)CC4)c4nccnc34)cc(F)c2n1 [Compound 258, 8-(4-(cyclopropylamino)piperidin-1-yl)-N-(8-fluoro-2-methylimidazo[1,2-a]pyridin-6-yl)quinoxaline-5-carboxamide] | < 100 nM | 100 to 1000 nM |
| Cc1cn2cc(NC(=O)c3ccc(N4CCC(NC5CC5)CC4)c4ccnnc34)cc(F)c2n1 [Compound 259, 5-[4-(cyclopropylamino)piperidin-1-yl]-N-{8-fluoro-2-methylimidazo[1,2-a]pyridin-6-yl} cinnoline-8-carboxamide] | < 100 nM | 1000 to 10000 nM |
| COc1nc2c(N3C[C@@H](C)N[C@@H](C)C3)ccc(C(=O)Nc3cc(F)c4nc(C)cn4c3)c2nc1C [Compound 260, 8-((3R,5S)-3,5-dimethylpiperazin-1-yl)-N-(8-fluoro-2-methylimidazo[1,2-a]pyridin-6-yl)-2-methoxy-3-methylquinoxaline-5-carboxamide; 2,2,2-trifluoroacetate] | < 100 nM | 1000 to 10000 nM |
| Cc1cn2cc(NC(=O)c3c(F)cc(N4C[C@@H](C)N[C@@H](C)C4)c4nccnc34)cc(F)c2n1 [Compound 261, cis-8-[(3R,5S)-3,5-dimethylpiperazin-1-yl]-6-fluoro-N-{8-fluoro-2-methylimidazo[1,2-a]pyridin-6-yl}quinoxaline-5-carboxamide] | < 100 nM | 1000 to 10000 nM |
| Cc1cn2cc(NC(=O)c3ccc(N4C5CNCC54)c4nccnc34)cc(F)c2n1 (stereo not drawn) [Compound 262, 8-{3,6-diazabicyclo[3.1.0]hexan-6-yl}-N-{8-fluoro-2-methylimidazo[1,2-a]pyridin-6-yl}quinoxaline-5-carboxamide] | 100 to 1000 nM | 100 to 1000 nM |
| Cc1cn2cc(NC(=O)c3ccc(N4C[C@@H](C)N[C@@H](C5CC5)C4)c4nccnc34)cc(F)c2n1 [Compound 266, 8-((3S,5R)-3-cyclopropyl-5-methylpiperazin-1-yl)-N-(8-fluoro-2-methylimidazo[1,2-a]pyridin-6-yl)quinoxaline-5-carboxamide] | < 100 nM | > 10000 nM |
| Cc1cn2cc(NC(=O)c3ccc(N4C[C@@H](C5CC5)N[C@@H](C)C4)c4nccnc34)cc(F)c2n1 [Compound 267, 8-((3R,5S)-3-cyclopropyl-5-methylpiperazin-1-yl)-N-(8-fluoro-2-methylimidazo[1,2-a]pyridin-6-yl)quinoxaline-5-carboxamide] | 100 to 1000 nM | 1000 to 10000 nM |
| COc1ccc2c(N3C[C@@H](C)N[C@@H](C)C3)ccc(C(=O)Nc3cc(F)c4nc(C)cn4c3)c2n1 [Compound 268, 5-[(3R,5S)-3,5-dimethylpiperazin-1-yl]-N-{8-fluoro-2-methylimidazo[1,2-a]pyridin-6-yl}-2-methoxyquinoline-8-carboxamide] | < 100 nM | 1000 to 10000 nM |

— patent US20240409536A1, “COMPOUNDS AND METHODS FOR MODULATING SPLICING” (REMIX THERAPEUTICS INC., priority 2021, published 2024)
